System: CT26 colorectal cancer cell line
Experiment: Anticancer efficacy in CT26 colorectal cancer tumor model
Format: in vivo, nude mice
Details: 1.0 mg/kg
Protocol: A colorectal cancer model was established by subcutaneously transplanting CT26 colorectal cancer cell line into nude mice. The colorectal cancer model was divided into two groups: vehicle administration group and Compound 1 administration group. […] Similar to Experimental Example 13, tumor size was calculated before drug administration and on days 3, 7, 10, 14, 18, 22, and 24 after drug administration, and body weight was measured before drug administration and on days 7, 14 and 22 after drug administration, which are shown in FIG. 22.
Additionally, tumors were extracted from the colorectal cancer model, fixed with 4% PFA solution, and subjected to TUNEL assay to determine the degree of apoptosis induction, and the results are shown in FIG. 22. As shown in the middle of FIG. 22, 28% apoptosis was induced in the vehicle administration group, and 72% apoptosis was induced in the 1.0 mg/kg compound 1 administration group, and statistical significance between these values was also verified (*p<0.01 versus the vehicle administration group).

CC(C(=O)NNc1ccc(F)cc1)n1cc(-c2cc(F)cc3c2-c2ccccc2C3(O)C(F)(F)F)cn1 (stereo not drawn) [Example 1, 2-(4-(2-fluoro-9-hydroxy-9-(trifluoromethyl)-9H-fluoren-4-yl)-1H-pyrazol-1-yl)-N'-(4-fluorophenyl)propanehydrazide]
decrease in tumor growth (tumor volume) compared to vehicle (day 24): 55% | change in the body weight (days 7, 14, 22): Neither the vehicle administration group nor the compound 1 administration group showed any change in the body weight | apoptosis induced in tumor (TUNEL assay) (vehicle group 28%): 72%
